Read-outs that look alike come from different tables or passages of the source.
What was measured:
[1] = cited from earlier work; for reduced immobility in the FST: FST literature
[2] = design: method as in PMID 10080230; conditions: cited from earlier work
male Sprague Dawley rats [3] = assay: Forced swim test (FST); format: in vivo, rat; conditions: for swimming vs vehicle: Figure 3G
Description: (§1) Male Sprague Dawley rats (Charles River Laboratories) weighing 180–200 g on arrival, were used for all behavioral studies, which took place at Melior Discovery (Exton, PA, USA). Rats acclimated to their home cages for at least 1 week before testing, were maintained in a controlled environment on a 12 h light/dark cycle, with no more than 2 rats per cage. Animals received ad libitum access to standard rodent chow and water and were assigned randomly to treatment groups. All animal use and procedures were in accordance with established protocols approved by the Melior IACUC committee, Melior Standard Operation Procedures (SOP), and Transcend Therapeutics. Distinct cohorts of animals were used for each experiment/Figure presented in this manuscript.
(§2) Methylone HCl (0.5–30 mg/kg; Cayman Chemical) or Fluoxetine HCl (10 mg/kg; Sigma-Aldrich) were formulated in sterile 0.9% saline vehicle before IP administration. Control animals received saline vehicle. Methylone or saline was administered 30 min prior to FST or OFT testing sessions. Fluoxetine or saline were administered 23.5, 5, and 1 h prior to testing, consistent with previous studies ([19]).
All studies were performed and scored by an experimenter blind to treatment group according to standard protocols at Melior Discovery (Exton, PA, USA) and based on published “modified FST” procedures ([20]). Briefly, rats were placed in a circular plexiglass container (29.2 cm diameter, 49.5 cm height) filled with water to a depth of 30 cm so rats could not support themselves by touching the bottom of the tank. Water was maintained at 22–25°C and was changed for every animal. Day 1 (Training) consisted of a 15 min acclimation trial, and Day 2 (Testing, 24 h later) consisted of the 5 min test. A time sampling procedure was employed where animals were observed every 5 s for the duration of the test session (60 counts or 5 min) and scored for immobility (defined as the failure to struggle), swimming (defined as a circular movement around the tank), or climbing (defined as an upward escape behavior). Data are expressed as the percent time spent immobile, swimming, or climbing for the 5-min testing session (e.g., the number of immobility counts divided by 60). Therefore, to extrapolate these values to time spent immobile in minutes, one can multiply the percent time immobile by 5 min.

male Sprague Dawley rats [4] = assay: Open field test (OFT): locomotor activity and time in center; format: in vivo, rat
Description: as §1, §2
All studies were performed by an experimenter blind to treatment group and according to standard protocols at Melior Discovery (Exton, PA, USA). The OFT was used to assess both locomotor activity and anxiety-like behavior. The OFT was run in a standard rat OFA chamber (17 ^^′′ × 17 ^^′′ × 12 ^^′′ , Med Associates). After habituation to the testing room and drug injection, rats were assessed for 30 min in the OFT using an automated activity monitoring system (MedAssociates). Locomotor activity was measured by recording the total ambulatory distance traveled (cm), reported in 5-min bins for the duration of the 30 min testing period. The center of the open field was defined as a 12 ^^′′ square, a predefined center setting on the MedAssociates analysis software. Time spent in the center of the open field, an anxiolytic measure, was also recorded for the 30 min testing period.

## Fc1ccc([C@@H]2CCNC[C@H]2COc2ccc3c(c2)OCO3)cc1 [paroxetine]
[1]
  reduced immobility in the FST: 40%

## CN(C)CCc1c[nH]c2cccc(OP(=O)(O)O)c12 [psilocybin]
[1]
  reduced immobility in the FST: 67%

## CNCCCN1c2ccccc2CCc2ccccc21 [desipramine]
[1]
  reduced immobility in the FST: 55–75%

## CN[C@H]1CC[C@@H](c2ccc(Cl)c(Cl)c2)c2ccccc21 [sertraline]
[1]
  reduced immobility in the FST: 50–68%

## CNC(C)Cc1ccc2c(c1)OCO2 (stereo not shown) [MDMA, 3,4-methylenedioxymethamphetamine]
[1]
  reduced immobility in the FST: 47–78%
[1]; FST
  reduction of immobility compared to vehicle controls: 47–78%
[2]; clinically relevant doses
  effect on anxiety: no effect
[2]; higher doses
  effect on anxiety: anxiogenic

## CNC1(c2ccccc2Cl)CCCCC1=O (stereo not shown) [ketamine]
[1]
  reduced immobility in the FST: 25–62%

## CNCCC(Oc1ccc(C(F)(F)F)cc1)c1ccccc1 (stereo not shown) [fluoxetine, reference compound]
Male Sprague Dawley rats [3]; fluoxetine 10 mg/kg IP x3, Figure 1E
  climbing behavior vs controls: unaffected
Male Sprague Dawley rats [3]; fluoxetine 10 mg/kg IP x3, Figure 1G
  swimming behavior vs controls: significantly increased
Male Sprague Dawley rats [3]; fluoxetine 10 mg/kg IP x3, 1 h, 24, 72 h, Figure 3E
  climbing vs vehicle on retest: no effect on climbing
Male Sprague Dawley rats [3]; fluoxetine 10 mg/kg IP x3, 1 h post-dose
  swimming vs vehicle: significantly increased swimming
Male Sprague Dawley rats [3]; fluoxetine 10 mg/kg IP x3, 24 h post-dose
  swimming vs vehicle: small but significant increase in swimming
Male Sprague Dawley rats [3]; fluoxetine 10 mg/kg IP x3, tested 1 h, retested 24 and 72 h later, Figure 3C
  immobility vs vehicle on retest: only showed a significant effect on immobility 1 h post-dose
Male Sprague Dawley rats [3]; fluoxetine 10 mg/kg IP, three doses 23.5, 5, 1 h before testing
  reduction/change in immobility vs vehicle control: 50%
Male Sprague Dawley rats [3]; fluoxetine 10 mg/kg x3 alone or with methylone 5 mg/kg, Figure 6D
  swimming compared to vehicle: significantly increased swimming
Male Sprague Dawley rats [3]; fluoxetine 10 mg/kg, three doses within 24 h before testing
  duration of reduction in immobility: less than 24 h
Male Sprague Dawley rats [4]; fluoxetine 10 mg/kg IP x3, 1 h post-dose, Figure 4B
  distance traveled, first 5 min: reduced distance traveled
Male Sprague Dawley rats [4]; fluoxetine 10 mg/kg IP x3, Figure 4E
  distance traveled over 30-min session, 5-min bins: reduced distance traveled in the OFT for the first 15 min
Male Sprague Dawley rats [4]; fluoxetine 10 mg/kg IP x3, Figure 5B
  time spent in the center: significantly reduced time spent in the center
[1]
  reduced immobility in the FST: 56%
